# Laboratory results as given in patent US8778340B2, “Anti-angiogenesis therapy for the treatment of ovarian cancer” (priority 2010, dated 2014).
# What was measured:
# [1] = system: newly diagnosed high risk FIGO stage I-IIa and stage IIb-IV epithelial ovarian, fallopian tube or primary peritoneal cancer; test: ICON7 phase III randomized two-arm trial of adding bevacizumab to carboplatin and paclitaxel (Example 2); format: in vivo, human; settings: for PFS hazard ratio (HR) (95% CI): CPB7.5+ versus CP, Log-Rank Test p 0.0010
# From the text: Results are presented from a phase III randomized study (ICON7) to evaluate the safety and efficacy of adding bevacizumab to standard chemotherapy with carboplatin and paclitaxel. The primary endpoint was to determine whether the addition of bevacizumab to standard chemotherapy improves progression free survival (PFS) when compared to standard chemotherapy alone in women with newly diagnosed, histologically confirmed, high risk International Federation of Gynaecology and Obstetrics (FIGO) stage I and IIa (Grade 3 or clear cell carcinoma only) and FIGO stage IIb-IV (all grades and all histological types) epithelial ovarian, fallopian tube or primary peritoneal cancer, who have undergone initial surgery (either debulking cytoreductive surgery or a biopsy if the patient has FIGO stage IV disease) and who would not be considered for cytoreductive surgery prior to disease progression. Secondary endpoints included overall survival (OS), response rate, duration of response, biological progression free interval (defined by increasing CA 125 or PFIBIO), safety and quality of life. ICON7 was a 2-arm randomized clinical trial comparing standard therapy (carboplatin and paclitaxel) with one investigational arm incorporating bevacizumab in combination with paclitaxel and carboplatin (see FIG. 8). A total of 1528 eligible women participated in the trial.
# ICON7 included patients with newly diagnosed, histologically confirmed, high risk FIGO stage I and IIa (Grade 3 or clear cell carcinoma only) and FIGO stage IIb-IV (all grades and all histological types) epithelial ovarian, fallopian tube or primary peritoneal cancer, who have undergone initial surgery (either debulking cytoreductive surgery or a biopsy if the patient has FIGO stage IV disease) and who will not be considered for cytoreductive surgery prior to disease progression. Patients with measurable and non-measurable disease are eligible. Patients were considered eligible for enrollment in this trial if they fulfilled all the inclusion criteria and none of the exclusion criteria as described below:
# Tumor assessments, either by CT or MRI scan, with measurements using the RECIST criteria, were performed after three and six cycles of chemotherapy, and at around nine months and 12 months in the first year, or after cycle 12 and cycle 18 of treatment for patients on the research arm. In the second and third year of the trial tumour assessments were repeated every six months and thereafter as clinically indicated. These scans were performed irrespective of whether the patient has been optimally or sub-optimally debulked, and irrespective of whether there is measurable disease, or not, on the baseline scan.
# Patients were clinically assessed and CA 125 measured at the start of every chemotherapy cycle and then six weekly during the first year of the trial. In the second and third year of the trial patients were assessed and CA 125 measured every three months. In the fourth and fifth year patients were clinically assessed and CA 125 measured every six months. Thereafter assessments were yearly. Progression based on CA 125 criteria alone were verified with a CT scan. If this was negative then it was repeated at the time of suspected clinical progression.
# Regular physical examination and routine blood tests were performed during treatment to monitor patient safety. Quality of life (QoL) were assessed using the EORTC QLQ C-30+OV-28 and EQ-5D questionnaires at the start of every chemotherapy cycle, every six weeks until the end of the first year and then every three months until treatment for progression commenced, or to the end of year two. An additional QoL form was completed by all patients still alive three years after randomisation. Adverse events and medical resource use were documented during the study treatment and follow-up period.
# [2] = system: platinum-sensitive recurrent epithelial ovarian, primary peritoneal, or fallopian tube carcinoma; test: OCEANS phase III placebo-controlled trial of carboplatin and gemcitabine plus bevacizumab (Example 3); format: in vivo, human
# Description: This example describes a placebo-controlled, randomized, multicenter Phase III study evaluating the efficacy and safety of bevacizumab (15 mg/kg, Day 1, every 21 days), administered in combination with carboplatin (area under the curve [AUC] 4, Day 1, every 21 days) with gemcitabine (1000 mg/m2, Day 1 and Day 8, every 21 days) in women with platinum sensitive recurrent epithelial ovarian, primary peritoneal, or fallopian tube carcinoma. About 480 patients were enrolled over a period of approximately 2.5 years. Patients were randomized in either carboplatin and gemcitabine with placebo versus carboplatin and gemcitabine with bevacizumab. […]
# This phase III study of bevacizumab plus chemotherapy in women with ovarian cancer met its primary endpoint. […] PFS is defined as the time from randomization to disease progression as determined by the investigator or death due to any cause, whichever occurs first. The primary endpoint of PFS was assessed by the study investigators. Measurable disease was investigator assessed using modified RECIST (Therasse et al. 2000), e.g., every 9 weeks throughout the course of the study. […]
# [3] = system: newly diagnosed, previously untreated, stage III or IV epithelial ovarian, primary peritoneal or fallopian tube cancer; test: Phase III trial of carboplatin and paclitaxel plus placebo versus plus concurrent bevacizumab versus plus concurrent and extended bevacizumab (Example 1, GOG 0218); format: in vivo, human; settings: preliminary assessment of safety
# From the text: Primary Objectives include to determine if the addition of 5 concurrent cycles of bevacizumab to 6 cycles of standard therapy (carboplatin and paclitaxel) [Arm II] increases the duration of progression-free survival (PFS) when compared to 6 cycles of standard therapy alone [Arm I] in women with newly diagnosed stage III (with any gross residual disease) and stage IV, epithelial ovarian, peritoneal primary or fallopian tube cancer; and, to determine if the addition of 5 concurrent cycles of bevacizumab plus extended bevacizumab for 16 cycles beyond the 6 cycles of standard therapy (carboplatin and paclitaxel) [Arm III] increases progression-free survival when compared to 6 cycles of standard therapy [Arm I] in women with newly diagnosed stage III (with any gross residual disease) and stage IV, epithelial ovarian, peritoneal primary or fallopian tube cancer.
# In this study two experimental arms were selected to compare with standard cytotoxic chemotherapy with paclitaxel and carboplatin: one incorporating 5 cycles of bevacizumab (concurrent bevacizumab) and the other with bevacizumab for an additional 16 cycles after completion of chemotherapy with paclitaxel and carboplatin (extended bevacizumab). Calvert Formula for Carboplatin (AUC) Dosing: Total dose(mg)=target AUC(in mg/mL/minute)*[GFR(in mL/minute)+25]. […]
# [4] = system: persistent or recurrent epithelial ovarian cancer or primary peritoneal cancer; settings: 15 mg/kg every 21 days, cited from earlier work
# [5] = system: platinum resistant ovarian cancer or primary peritoneal serous cancer; settings: same dose and schedule as GOG 170-D; 44 patients; cited from earlier work
substance,measurement,setting,value
"CPB7.5+: ICON7 chemotherapy plus bevacizumab arm (Arm B), bevacizumab continued as maintenance for a total duration of 12 months",PFS hazard ratio (HR) (95% CI),[1],0.79 (0.68; 0.91)
same,PFS hazard ratio (HR) (95% CI),"[1]; listed as paclitaxel, carboplatin and anti-VEGF antibody",0.79
same,All Deaths,[1]; number of patients (percent),107 (14.3%)
same,All Related Deaths,[1]; number of patients (percent),5 (0.7%)
same,Deaths not due to Progression,[1]; number of patients (percent),19 (2.5%)
same,Pts w. Grade 3/4/5 AE,[1]; number of patients (percent),479 (64.2%)
same,Pts w. Serious AE,[1]; number of patients (percent),279 (37.4%)
same,Pts who Disc. Any Treatment,[1]; number of patients (percent),293 (39.3%)
same,Pts who Disc. Any Treatment due to AE,[1]; number of patients (percent),162 (21.7%)
same,PFS median,[1]; primary analysis of PFS,18.3 months
same,difference in median PFS,[1]; versus paclitaxel and carboplatin alone,2.3 months
"bevacizumab plus chemotherapy: OCEANS: Avastin 15 mg/kg with carboplatin and gemcitabine, followed by Avastin alone until disease progression",progression-free survival compared to chemotherapy alone,"[2]; investigator assessed, modified RECIST, followed by bevacizumab alone until disease progression",increased
bevacizumab: recombinant humanized anti-VEGF monoclonal antibody; human IgG1 framework with CDRs from murine antibody A.4.6.1,tolerability of the treatment regimen / adverse events,[3],generally well tolerated
same,preliminary assessment of adverse events,[1]; in vivo,consistent with previous studies
same,safety findings / adverse events,[2]; in vivo,No new safety findings were observed
same,response rate,[4]; NCI RECIST,21%
same,median PFS,[4],4.7 months
same,progression-free for at least 6 months,[4],40%
same,progression-free for at least 6 months,[5],27%
same,responses,[5],16%
